According to EP0877740B1, “THIOL DERIVATIVES WITH METALLOPEPTIDASE INHIBITORY ACTIVITY” (ZAMBON GROUP S.p.A., priority 1995, dated 1997):
Read-outs that look alike come from different tables or passages of the source.

Molecular target: T1, NEP (Rattus norvegicus, UniProt P07861)
T1 sequence (P07861 1-750): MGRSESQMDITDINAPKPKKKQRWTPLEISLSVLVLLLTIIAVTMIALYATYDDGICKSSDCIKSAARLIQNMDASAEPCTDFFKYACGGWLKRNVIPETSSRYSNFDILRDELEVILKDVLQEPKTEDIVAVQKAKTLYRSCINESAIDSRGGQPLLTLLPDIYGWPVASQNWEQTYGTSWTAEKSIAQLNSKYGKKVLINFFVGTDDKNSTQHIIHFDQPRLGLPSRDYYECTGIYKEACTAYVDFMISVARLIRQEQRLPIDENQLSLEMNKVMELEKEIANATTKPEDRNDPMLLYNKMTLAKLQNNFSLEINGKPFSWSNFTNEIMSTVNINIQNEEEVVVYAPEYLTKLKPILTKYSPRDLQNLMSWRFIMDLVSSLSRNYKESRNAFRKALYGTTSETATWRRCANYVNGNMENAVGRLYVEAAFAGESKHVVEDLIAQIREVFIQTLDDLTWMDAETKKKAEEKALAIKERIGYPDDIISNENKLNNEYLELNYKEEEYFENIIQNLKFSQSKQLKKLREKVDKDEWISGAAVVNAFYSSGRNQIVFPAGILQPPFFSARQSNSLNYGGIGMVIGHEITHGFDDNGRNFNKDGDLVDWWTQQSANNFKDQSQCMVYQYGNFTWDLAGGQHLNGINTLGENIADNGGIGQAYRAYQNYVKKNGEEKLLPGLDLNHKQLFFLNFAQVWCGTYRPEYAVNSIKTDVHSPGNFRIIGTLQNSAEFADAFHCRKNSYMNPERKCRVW
Assay: Ex vivo NEP-inhibitory activity in kidney homogenates of treated SHR (GAAP substrate)
Design: After the removal of the kidneys from SHR, the renal tissue was homogenized; from tissue; host or cells: kidney homogenate of spontaneously hypertensive rats (SHR); species or system spontaneously hypertensive rats (SHR)
Conditions: rat, SHR kidneys; for inhibition at 30 µmol/kg: oral 30 µmoles/kg
Experimental: The ex-vivo ACE/NEP-inhibitory activity, in particular, was determined by evaluating the enzymatic activity in tissue homogenates (lung and kidney for ACE and NEP activity, respectively) from spontaneously hypertensive rats (SHR) treated with the tested compounds by intravenous or oral route.
The ex vivo NEP-inhibitory activity was evaluated according to the procedure reported in the literature by M. Orlowsky et al., in Biochemistry 1981, 20, 4942-4950.
The inhibitory activity of the compounds of formula I was evaluated in kidneys of spontaneously hypertensive rats (SHR), 5 minutes after i.v. injection (0.6 and 21 µmoles/kg) and 30 minutes, 60 minutes and 4 hours after oral administration (30 µmoles/kg) of the tested compounds.
After the removal of the kidneys from SHR, the renal tissue was homogenized and incubated for 15 minutes at 37°C in the presence of Glutaryl-Ala-Ala-Phe-2-naphthylamide (GAAP), as a substrate, and aminopeptidase M at pH 7.6.
The reaction was stopped by adding an aqueous solution at 10% of trichloroacetic acid.
The released 2-naphthylamine was determined by adding fast garnet dye (2 ml).
Enzyme reaction rates were determined by measuring the increase in the optical density at 524 nm (OD524) with respect to a standard obtained with 2-naphthylamine complexed with fast garnet.
The NEP-inhibitory activity of the tested compounds was expressed as percentage of NEP-inhibition in SHR kidneys.

O=C(N[C@@H](Cc1ccc(-c2nccs2)cc1)C(=O)O)[C@@H](CS)Cc1ccccc1 [Compound 16, N-[(2S)-3-mercapto-2-phenylmethylpropionyl]-4-(2-thiazolyl)-L-phenylalanine]
inhibition at 0.6 µmol/kg (iv, i.v. 0.6 µmoles/kg, 5 minutes after injection): 34% | inhibition at 21 µmol/kg (iv, i.v. 21 µmoles/kg, 5 minutes after injection): 49% | inhibition at 30 µmol/kg (30 minutes after administration, read-out: NEP-inhibition (kidneys) 30 minutes): 55% | inhibition at 30 µmol/kg (60 minutes after administration, read-out: NEP-inhibition (kidneys) 60 minutes): 39% | inhibition at 30 µmol/kg (4 hours after administration, read-out: NEP-inhibition (kidneys) 4 hours): 40%
